Results taken from patent US12036212B2, “Enhancement of tumor response to chemotherapy by activation of the asmase/ceramide pathway through timed administration of a short-acting anti-angiogenic agent” (Memorial Sloan-Kettering Cancer Center, priority 2014, dated 2024).

Assays:
HCT116 tumors = experiment: Tumor response in vivo, HCT116 tumors; design: species or system mice
Description: (§1) Human HCT-116 colon cancer cells and MCA/129 murine sarcoma cells were maintained in DMEM with 10% fetal bovine serum, with 100 u/ml penicillin and 100 μg/ml streptomycin. Cells were grown as monolayers in 75 cm^2 culture flasks at 37° C. in 10% CO2 humidified incubators. Cells were trypsinized, washed in PBS and diluted in Matrigel/PBS solution (40:60 v/v) for HCT-116 xenografts or in PBS for MCA/129 syngeneic tumor grafts. Cells (3×10^6 for HCT-116 or 1×10^6 for MCA129) were injected subcutaneously into the flanks of mice (Garcia-Barros et al. Science 300, 1155-1159, 2003).
SCID^asmase+/+ and SCID^asmase−/− mice harboring HCT-116 tumors (50-100 mm^3) were treated with three i.p. injections of 35-50 mg/kg etoposide (Novaplus®), or 15-25 mg/kg paclitaxel (Hospira), or 1-6 mg/kg cisplatin (APP Pharmaceuticals, LLC) in a bi-weekly schedule with or without i.v. DC101 (1600 μg/25 gm mouse), or control IgG. For sarcoma studies, Sv129/Bl6 mice harboring MCA/129 tumors (100-150 mm^3) were treated with three i.p. injections of 240 mg/kg gemcitabine on a bi-weekly schedule with or without i.v. DC-101. Tumor volume, based on caliper measurements (length and width in millimeters), was calculated daily using the following formula: 0.5×length×width^2.
Tumor response to chemotherapy in the colorectal HCT116 xenograft model was evaluated. SCID^asmase+/+ or SCID^asmase−/− mice harboring HCT116 tumors (50-70 mm^3) were treated with paclitaxel (15/20/25 mg/kg i.p.) three times biweekly. […] To test that the ASMase requirement is mediated by the generation of ceramide, SCID^asmase+/+ mice harboring tumors as in FIG. 5A were treated with etoposide (35/35/50 mg/kg i.p.) biweekly in the presence of anti-ceramide or isotype control antibody.
(§2) To further test the ability of cisplatin to affect endothelial cell apoptosis and tumor response in vivo, effects of cisplatin on tumor growth were evaluated.
Thus, to further explore the notion of endothelial ASMase signaling requirement in response to chemotherapy, DC101 was used in combination with paclitaxel treatment.

[1] = test system: HCT116 human colorectal cancer xenografts; experiment: Endothelial apoptosis in vivo (TUNEL/MECA-32) in HCT116 xenografts; design: species or system mice; conditions: single dose paclitaxel 25 mg/kg, 4 hours
Description: as §1
To evaluate acute endothelial apoptosis, tumors were grown in mice and treated with drugs as above. After the first treatment, tumors were harvested at specified times, placed into formalin overnight and paraffin-embedded the next day. Paraffin-embedded sections (5 μm) were co-stained for apoptotic endothelium using TUNEL and the endothelial-specific monoclonal antibody MECA-32 (Developmental Studies Hybridoma Bank, developed under the auspices of the NICHD and maintained by The University of Iowa, IA). […]
as §2

CRM = CRM detection by confocal microscopy in BAEC; format: cell-based, bovine; conditions: paclitaxel 100 nM
Description: BAEC were grown on CC2-treated chamber slides (Nalge Nunc International Corp., Naperville, USA) and then exposed to etoposide or paclitaxel with or without pre-incubation with Nystatin (30 μg/ml, Sigma) for 30 min. BAEC were then washed in cold PBS, fixed for 15 min in fresh 2% paraformaldehyde, washed 2× with cold PBS, and blocked with 5% FBS in PBS for 20 min at room temperature. Cells were stained with anti-ceramide MID 15B4 IgM (Alexis Corporation) at 1:50 dilution for 1 hour at room temperature, washed 3× in PBS, and thereafter with Texas Red-conjugated secondary antibody (Jackson Immunoresearch Laboratories, Inc.) at 1:500 dilution for 1 hour at room temperature. Nonspecific fluorescence was excluded using isotype control IgM (BD Biosciences). Cells were washed 3×, stained with DAPI and mounted in 0.1% paraphenylenediamine. Fluorescence was detected using Leica TCS SP2 AOBS 1- and 2-photon laser scanning confocal (DMRXA2 upright stand) microscope coupled with MetaMorph 7.5 (Molecular Devices). Number of CRMs in membranes of endothelial cells was analyzed using MetaMorph 7.5 software that allowed outlining of regions containing CRMs based on two criteria: 1) CRM size (≥500 nm); 2) Intensity of ceramide staining. Mice: asmase^+/+ and asmase^−/− mice, maintained in a SCID background, were propagated using heterozygous breeding pairs and genotyped as previously described (Santana et al. Cell, 86, 189-199, 1996; Grassme et al. Nat Med 9, 322-330 (2003). 6-12 week-old C57BL6/SV129 male mice, purchased from The Jackson Laboratory (Bar Harbor).
To test the effect of chemotherapy on ASMase signaling and ceramide production, BAEC were treated with paclitaxel (100 nM) and ASMase activity was determined by radioenzymatic assay (Rotolo et al, infra) using [^14C-methylcholine] sphingomyelin (Amersham) as substrate (FIG. 1A). Induction of ASMase activity was observed within 5 minutes after treatment, and the activation continued for 30 minutes. Ceramide generation was monitored using the diacylglycerol kinase assay (Stancevic et al. PLoS ONE 8, e69025, 2013). […]

| Structure (SMILES) | Tumor growth delay (HCT116 tumors; cisplatin 3×6 mg/kg) | Tumor response, agent alone (HCT116 tumors; SCID asmase+/+, 3×15 mg/kg paclitaxel or 1600 μg DC101 alone) | Complete tumor response after (HCT116 tumors; SCID asmase+/+, paclitaxel 15/20/25 mg/kg i.p. three times biweekly) [days] | Tumor response (HCT116 tumors; SCID asmase−/−, paclitaxel 15/20/25 mg/kg i.p. three times biweekly) | Tumor endothelial apoptosis ([1]; SCID asmase+/+) | Tumor endothelial apoptosis ([1]; SCID asmase−/−) | CRM formation peak time (CRM) [min] | CRM formation remained elevated for (CRM) [min] |
| --- | --- | --- | --- | --- | --- | --- | --- | --- |
| N.N.[Cl][Pt][Cl] [cisplatin] | did not induce significant HCT116 tumor growth delay |  |  |  |  |  |  |  |
| CC(=O)O[C@H]1C(=O)[C@@]2(C)[C@H]([C@H](OC(=O)c3ccccc3)[C@]3(O)C[C@H](OC(=O)[C@H](O)[C@@H](NC(=O)c4ccccc4)c4ccccc4)C(C)=C1C3(C)C)[C@]1(OC(C)=O)CO[C@@H]1C[C@@H]2O [paclitaxel] |  | slightly affected | 10 ± 1 | no significant tumor response | robust endothelial apoptosis | resistant to chemotherapy-induced endothelial cell apoptosis | 5 | 30 |
